Laboratory results taken from US9937194B1, “Compounds and methods for treating inflammatory diseases” (priority 2009, dated 2018).
≈ marks a conversion by molar mass, not a printed value.

Experiments:
HDAC activity = assay: H2O2-induced reduction of HDAC activity in PMA-differentiated U937 cells; type: cell-based, human; conditions: for restoration of H2O2-reduced HDAC activity (%): test concentration not given, bracketed second value not explained
Protocol: In cell HDAC assay. Cells are incubated with Fluor de Lys™ substrate for 1 hr before lyses. Total HDAC activity from whole cell extracts is measured using the HDAC Fluorimetric Assay/Drug Discovery Kit (BIOMOL® International, Inc., Plymouth Meeting, Pa.).
HDAC expression: In cell HDAC activity assay: U937 is differentiated to macrophage type cells by PMA for 3 days. HDAC fluorescent substrate (Biomol) is added before exposure of oxidative stress (H2O2, 200 μM) or Tobacco smoke conditioned medium for 4 hrs. HDAC activity is measured (Biomol kit). Compounds at different concentrations are treated 20 min before oxidative stress treatment.
PMA-differentiated macrophage-like cells are pretreated with compounds described herein for 20 min. After H2O2 (200 μM) stimulation for 4 hrs, HDAC activity is assayed. Data are expressed as fold changes against positive control treated with H2O2 only. Values represent means of four experiments±SEM.

Akt = assay: H2O2-induced phosphorylation of Akt in PMA-differentiated U937 cells (western blot); type: cell-based, human; conditions: PMA-differentiated U937; H2O2 1 mM 30 min
Protocol: Cell Lysis and Western Blotting. Whole cell protein extracts are prepared using modified RIPA buffer (50 mM Tris HCL pH 7.4, 0.5% NP-40, 0.25% Na-deoxycholate, 150 mM NaCl with freshly added complete protease (Roche). Phosphatase inhibitor (Active Motif) is also added when required. Protein concentration is determined using the Bio-Rad Protein Assay (Bio-Rad). Proteins are separated by SDS-PAGE under denaturing conditions, and electrotransferred to a nitrocellulose membrane (Amersham Biosciences, Amersham, U.K.) (Western blotting). The membranes are blocked in TBS containing 0.05% Tween 20 and 5% non-fat dried milk, and then incubated with anti-pAkt or Akt antibody followed by an horse radish peroxidase-conjugated secondary antibody (Dako UK Ltd., Ely, UK). Bound antibodies are visualized by ECL Plus (GE Healthcare UK Ltd., Little Chalfont, UK). The band density is calculated by densitometry (UVP Bioimaging Systems, Cambridge, UK) using Labworks software (Ultra-Violet Products, Cambridge, UK).
Effects of compounds on H2O2-induced phosphorylation of Akt in PMA-differentiated U937 cells. PMA-differentiated macrophage-like cells are pretreated with compounds described herein for 20 min. After H2O2 (1 mM) stimulation for 30 min, cells are lysed. Phosphorylation levels of Akt are measured by western blot. Data are calculated relative to total protein, and expressed as fold changes against positive control treated with H2O2 only. Values represent means of three or four experiments±SEM.

IL-8 = assay: LPS-induced IL-8 release in PMA-differentiated U937 cells (ELISA); type: cell-based, human; conditions: for IL-8 inhibition (%): test concentration not given
Protocol: (§1) Cytokine ELISA. LPS-induced IL-8, TNFα concentrations and TNFα-induced IL-8 concentrations are determined by sandwich ELISA according to the manufacturer's instructions (R&D Systems Europe). IC50 values for dexamethasone on IL-8 production are calculated using the computer program Prism 4.0 (GraphPad Software Inc., San Diego, Calif.) as a marker for steroid sensitivity.
(§2) Effects of compounds on LPS-induced IL-8 and TNFα release in PMA-differentiated U937 cells. PMA-differentiated macrophage-like cells are pretreated with compounds described herein for 1 hr, followed by LPS (100 ng/ml) stimulation for 4 hrs. LPS-induced IL-8 and TNFα release is evaluated by ELISA. Values represent means of three experiments±SEM.

TNFα = assay: LPS-induced TNFα release in PMA-differentiated U937 cells (ELISA); type: cell-based, human; conditions: for TNFα inhibition (%): test concentration not given
Protocol: as §1, §2

S. pneumoniae ATCC 49619 = assay: MIC; type: cell-based
E. coli ATCC 25922 = assay: MIC; type: cell-based; conditions: in µg/mL
MMP9 = assay: PMA-induced MMP9 expression in U937 cells (gelatin zymography); type: cell-based, human; conditions: test concentration not given; bracketed second value not explained
Protocol: Zymography. MMP9 enzyme activity is measured by gelatin zymography. 5 μl of supernatants were diluted with 5 μl Laemli sample buffer (Bio-Rad) and are loaded on a Novex® 10% Zymogram (Gelatin) gel (Invitrogen). After electrophoresis (90 min, 125 V, 35 mA, 5 W) gels are incubated with 1× Novex® zymogram renaturing buffer (Invitrogen) for 30 min at room temperature with gentle agitation. Gels are then rinsed in 1× Novex® zymogram developing buffer (Invitrogen) for 30 min at room temperature with gentle agitation prior to overnight incubation in the developing buffer at 37° C. After incubation the gels are stained using the colloidal blue staining kit (Invitrogen) with buffer containing 20% methanol and 70% distilled water to visualize the zymogen bands. Relevant band intensities are quantified by densitometric analysis using the UVP GelDoc-It system.
Effects of compounds on PMA-induced MMP9 expression in U937 cells. U937 cells are pretreated with compounds described herein for 1 hr, followed by PMA (50 ng/ml) treatment for 48 hrs. After 48 hrs supernatants are collected for zymography. MMP9 enzyme activity is measured by gelatin zymography. Data are expressed as fold changes against positive control treated with PMA only. Values represent means of three experiments±SEM.

P. aeruginosa ATCC 27853 = assay: MIC; type: cell-based
[1] = tested on: S. aureus ATCC 29213 (MSSA) MLS-S; assay: MIC; type: cell-based
S. aureus MRSA 33591 = assay: MIC; type: cell-based
S. pyogenes ATCC 19615 = assay: MIC; type: cell-based; conditions: in µg/mL
[2] = tested on: S. typhimurium ATCC 14028; assay: MIC; type: cell-based; conditions: in µg/mL
[3] = type: cell-based; conditions: test concentration not given
Protocol: The human monocytic cell line U937 and the human type II alveolar epithelial carcinoma cell line A549 were obtained from the American Type Culture Collection (ATCC, Rockville, Md.). PBMCs from COPD patients were obtained in Brompton hospital and separated by AccuSPIN (Sigma-Aldrich, Poole, UK). Cells were cultured in complete growth medium (Sigma-Aldrich) (RPMI 1640 for U937, PBMCs, and Dulbecco's modified essential medium (DMEM) for A549) supplemented with 10% fetal bovine serum (FBS) and 1% L-glutamine at 37° C. in a humidified atmosphere with 5% CO2. U937 were differentiated into an adherent macrophage-like morphology by exposure to PMA (50 or 100 ng/ml) for 48 hrs in complete growth medium. Cell viability was assessed microscopically by trypan blue staining. Cell toxicity was determined by MTT assay as needed. This study was approved by the ethics committee of the Royal Brompton Hospitals, and all subjects gave written informed consent.

H. influenzae ATCC 49247 = assay: MIC; type: cell-based
[4] = tested on: N. gonorrhoeae ATCC 49226; assay: MIC; type: cell-based; design: unit not given beside the values
E. faecium ATCC 19434 = assay: MIC; type: cell-based
K. pneumonia 13883 = assay: MIC; type: cell-based; conditions: in µg/mL

SMILES	restoration of H2O2-reduced HDAC activity (%) (HDAC activity)	MIC S. pneumoniae ATCC 49619 (S. pneumoniae ATCC 49619)	IL-8 inhibition (%) (IL-8)	MIC E. coli ATCC 25922 (E. coli ATCC 25922)	MMP9 inhibition (%) (MMP9)	MIC P. aeruginosa ATCC 27853 (P. aeruginosa ATCC 27853)	TNFα inhibition (%) (TNFα)	MIC S. aureus ATCC 29213 (MSSA) MLS-S [1]	MIC S. aureus MRSA 33591 (S. aureus MRSA 33591)	MIC S. pyogenes ATCC 19615 (S. pyogenes ATCC 19615)	MIC S. typhimurium ATCC 14028 [2]	Cell Toxicity (% cell death) [3]	MIC H. influenzae ATCC 49247 (H. influenzae ATCC 49247)	MIC N. gonorrhoeae ATCC 49226 [4]	MIC E. faecium ATCC 19434 (E. faecium ATCC 19434)	MIC K. pneumonia 13883 (K. pneumonia 13883)	other results
CC[C@H]1OC(=O)[C@H](C)C(=O)[C@H](C)[C@@H](O[C@@H]2O[C@H](C)C[C@H](N(C)C)[C@H]2O)[C@](C)(OC)C[C@@H](C)C(=O)[C@H](C)[C@H]2N(CCCCn3cnc(-c4cccnc4)c3)C(=O)O[C@]12C [TEL, telithromycin, reference compound]																	restoration of HDAC activity compared with Example 33 (HDAC activity; PMA-differentiated U937, H2O2 200 μM 4 hrs): only at much higher doses than Example 33; HDAC activity reached compared with untreated controls (HDAC activity; PMA-differentiated U937, H2O2 200 μM, comparators at highest doses tested): only restore HDAC activity to levels comparable to untreated controls; inhibition of Akt phosphorylation compared with Example 33 (Akt): only at much higher concentrations than Example 33; inhibition of LPS-induced IL-8 release compared with Example 33 (IL-8; LPS 100 ng/ml 4 hrs): did not show any inhibition at any concentration tested; IC50 (TNFα; Homo sapiens, U-937, LPS-induced TNFα release, PMA-differentiated U937, NA = inactive): 231 ± 37 µM; inhibition of LPS-induced TNFα release compared with Example 33 (TNFα; LPS 100 ng/ml 4 hrs): at higher concentrations than Example 33
CCC1OC(=O)C(C)C(OC2CC(C)(OC)C(O)C(C)O2)C(C)C(OC2OC(C)CC(N(C)C)C2O)C(C)(O)CC(C)CN(C)C(C)C2OC(=O)OC12C (centres unmarked) [Example 42]	104 (79) %	≤ 0.125 µg/mL	−27%	8-32	−2%	> 64 µg/mL	8%	1 µg/mL (≈ 1.29 µM)	> 64 µg/mL	≤0.125	8-16	−8%	4 µg/mL (≈ 5.16 µM)	≤0.125	8 µg/mL (≈ 10.3 µM)	8-32	
CCC1OC(=O)C(C)C(OC2CC(C)(OC)C(OC(C)=O)C(C)O2)C(C)C(OC2OC(C)CC(N(C)C)C2O)C(C)(OC)CC(C)C(=O)C(C)C2N(CCCCn3cc(CO)nn3)C(=O)OC12C (centres unmarked) [Example 25]	72 (63) %		26%		10%		15%					−8%	4 µg/mL (≈ 4.13 µM)				
CC[C@H]1OC(=O)[C@H](C)C(=O)[C@H](C)[C@@H](O[C@@H]2O[C@H](C)C[C@H](N(C)C)[C@H]2O)[C@@](C)(OC)C[C@@H](C)CN(C(=O)CCCn2cc(-c3ccc(Br)cc3)nn2)[C@H](C)[C@@H](O)[C@]1(C)O [Example 41]	14%	32 µg/mL (≈ 36.3 µM)	54%	>64	39 (41) %	> 64 µg/mL	45%	64 µg/mL (≈ 72.7 µM)	> 64 µg/mL	64	>64	8%	> 64 µg/mL	64	64 µg/mL (≈ 72.7 µM)	>64	
CCC1OC(=O)C(C)C(OC2CC(C)(OC)C(OC(C)=O)C(C)O2)C(C)C(OC2OC(C)CC(N(C)C)C2O)C(C)(OC)CC(C)C(=O)C(C)C2N(CCCCn3cc(CN(C)C)nn3)C(=O)OC12C (centres unmarked) [Example 24]	85%		60%		11%		6%					−3%	64 µg/mL (≈ 64.3 µM)				
